Experimental data taken from US5110927A (The United States of America as represented by the …, priority 1987, dated 1992).
Entries after “also recorded” stand apart in the source; their conditions may differ.

Biological target: α1-adrenoceptor (3H-prazosin binding sites)
Assay: displacement of 3H-prazosin from rat cerebral cortical (brain) membranes
Settings: for -logIC50: 3H-prazosin displacement, rat cerebral cortical membranes; for affinity to alpha1-adrenoceptors (in words): discussion of Table 1
Method: IC50 values and apparent Ki values were determined as in Table 1.
Rat brain cortices were homogenized in approximately 30 volumes/wet weight of 50 mM Tris buffer, pH 7.4, containing 10 mM MgCl2 by use of a Polytron (setting 6 for 10 seconds). It should be noted that this buffer was used throughout the experimental procedures. The homogenate was centrifuged at 48,000×g for 10 minutes in a Sorvall RC-5B centrifuge. The resulting pellet was resuspended in buffer by use of a Polytron and recentrifuged. This process was repeated and the pellet was resuspended in approximately 200 volumes for affinity studies or 20 volumes for irreversibility experiments.
Specific binding was defined as the difference between total binding (measured in the absence of any ligand) and non-specific binding (measured in the presence of 10 microM phentolamine). Duplicate tubes were used for each condition. Reaction tubes were incubated for 30 minutes at 30° C., then diluted to 5 ml with ice cold buffer, and filtered under reduced pressure through Whatman GF/C glass fiber filters. The reaction tubes and filters were washed three additional times with buffer.

-logIC50 | affinity to alpha1-adrenoceptors (in words) | Compound
9.15 | – | COC(=O)/C=C/C(=O)N1CCN(c2nc(N)c3cc(OC)c(OC)cc3n2)CC1 [Compound 4]
8.01 | – | COC(=O)/C=C/C=C/C(=O)N1CCN(c2nc(N)c3cc(OC)c(OC)cc3n2)CC1 [Compound 5]
8.47 | affinity is considerably decreased | COc1cc2nc(N3CCN(C(=O)CCc4ccccc4)CC3)nc(N)c2cc1OC [Compound 7]
7.90 | affinity is considerably decreased | COc1cc2nc(N3CCN(C(=O)COc4ccccc4)CC3)nc(N)c2cc1OC [Compound 8]
7.92 | – | COc1cc2nc(N3CCN(C(=O)/C=C/c4ccc(F)cc4)CC3)nc(N)c2cc1OC [Compound 10]
7.90 | – | COc1cc2nc(N3CCN(C(=O)C=Cc4ccc(Cl)cc4)CC3)nc(N)c2cc1OC [Compound 11]
7.10 | – | COc1cc2nc(N3CCN(C(=O)C=Cc4ccc(Br)cc4)CC3)nc(N)c2cc1OC [Compound 12]
7.68 | – | COc1cc2nc(N3CCN(C(=O)C=Cc4cccc(F)c4)CC3)nc(N)c2cc1OC [Compound 13]
8.47 | – | COc1ccc(/C=C/C(=O)N2CCN(c3nc(N)c4cc(OC)c(OC)cc4n3)CC2)cc1 [Compound 15]
6.97 | – | COc1cc2nc(N3CCN(C(=O)/C=C/c4ccc(NC(=O)CBr)cc4)CC3)nc(N)c2cc1OC [Compound 18]
7.79 | – | COC(=O)/C=C/C(=O)Nc1ccc(/C=C/C(=O)N2CCN(c3nc(N)c4cc(OC)c(OC)cc4n3)CC2)cc1 [Compound 19]
7.89 | – | COc1cc2nc(N3CCN(C(=O)C(F)=Cc4ccccc4)CC3)nc(N)c2cc1OC [Compound 20]
7.06 | reduced affinity considerably | COc1cc2nc(N3CCN(C(=O)/C=C/C(=O)c4ccccc4)CC3)nc(N)c2cc1OC [Compound 23]

Continued, compound first:

Compound | -logIC50 | affinity to alpha1-adrenoceptors (in words)
COc1cc2nc(N3CCN(C(=O)[C@@H]4C[C@H]4c4ccccc4)CC3)nc(N)c2cc1OC (relative stereo) [Compound 25] | 9.29 | affinity similar to that of the cinnamoyl compound No. 9
COc1cc2nc(N3CCN(C(=O)[C@@H]4O[C@H]4c4ccccc4)CC3)nc(N)c2cc1OC (relative stereo) [Compound 26] | 7.45 | two orders of magnitude lower than that of cyclopropane
COc1cc2nc(N3CCN(C(=O)n4ccnc4)CC3)nc(N)c2cc1OC [Compound 2] | 7.97 | low affinity
COc1cc2nc(N3CCN(C(=O)CBr)CC3)nc(N)c2cc1OC [Compound 3] | 5.27 | low affinity
COc1cc2nc(N3CCN(C(=O)C=Cc4c(F)c(F)c(F)c(F)c4F)CC3)nc(N)c2cc1OC [Compound 14] | 6.94 | –
COc1cc2nc(N3CCN(C(=O)/C=C/c4ccc(N=[N+]=[N-])cc4)CC3)nc(N)c2cc1OC [Compound 16] | 9.49 | single exception; also recorded: improved the affinity
COc1cc2nc(N3CCN(C(=O)C=Cc4ccc(N=C=S)cc4)CC3)nc(N)c2cc1OC [Compound 17] | 6.99 | –
COc1cc2nc(N3CCN(C(=O)C(=Cc4ccccc4)N=[N+]=[N-])CC3)nc(N)c2cc1OC [Compound 21] | 8.06 | –
COc1cc2nc(N3CCN(C(=O)C(=Cc4ccccc4)c4ccccc4)CC3)nc(N)c2cc1OC [Compound 22] | 7.51 | –
COc1cc2nc(N3CCN(C(=O)c4ccc5ccccc5c4)CC3)nc(N)c2cc1OC [Compound 24] | 7.31 | decreased considerably
COc1cc2nc(N3CCN(C(=O)C4C(C=C(C)C)C4(C)C)CC3)nc(N)c2cc1OC (centres unmarked) [Compound 27] | 7.15 | very low affinity
COc1cc2nc(N3CCN(C(=O)C#Cc4ccccc4)CC3)nc(N)c2cc1OC [Compound 28] | 7.92 | –
